Measured values published in US10494376B2, “Tetrahydroisoquinoline derived PRMT5-inhibitors” (CTXT PTY LTD, priority 2014, dated 2019).
Counter-ions that a name gives are not always drawn. Like-named read-outs stand apart in the source and are kept apart here.

What was measured:
[1] = target: T1, Full-length PRMT5 enzyme (NCBI Reference sequence NP_006100.2) co-expressed with His6-MEP50 (Homo sapiens (Human), UniProt O14744); assay: PRMT5 Biochemical Assay; conditions: 200 nM peptide substrate, 1 μM S-Adenosyl methionine, 4 hours at 37° C., Transcreener EPIGEN fluorescence polarisation
T1 sequence (O14744 whole entry): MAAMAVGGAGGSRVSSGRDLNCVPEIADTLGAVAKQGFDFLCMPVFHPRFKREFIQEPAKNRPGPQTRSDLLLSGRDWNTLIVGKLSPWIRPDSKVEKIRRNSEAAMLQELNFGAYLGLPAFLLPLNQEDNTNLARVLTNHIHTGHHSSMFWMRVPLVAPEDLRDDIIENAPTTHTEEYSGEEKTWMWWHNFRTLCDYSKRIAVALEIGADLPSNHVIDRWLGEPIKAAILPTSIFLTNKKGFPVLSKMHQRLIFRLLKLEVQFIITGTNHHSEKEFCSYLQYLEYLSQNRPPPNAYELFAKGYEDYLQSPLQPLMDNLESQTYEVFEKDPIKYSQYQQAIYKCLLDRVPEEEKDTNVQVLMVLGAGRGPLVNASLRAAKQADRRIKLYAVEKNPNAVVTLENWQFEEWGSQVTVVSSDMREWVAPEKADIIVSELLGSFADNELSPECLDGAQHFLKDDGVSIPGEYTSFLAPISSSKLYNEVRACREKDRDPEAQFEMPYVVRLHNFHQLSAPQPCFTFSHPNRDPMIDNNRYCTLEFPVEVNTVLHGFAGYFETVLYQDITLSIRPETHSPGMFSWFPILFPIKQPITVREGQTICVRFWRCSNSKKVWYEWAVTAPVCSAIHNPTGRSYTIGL
T1 sequence (Q9BQA1 whole entry partner): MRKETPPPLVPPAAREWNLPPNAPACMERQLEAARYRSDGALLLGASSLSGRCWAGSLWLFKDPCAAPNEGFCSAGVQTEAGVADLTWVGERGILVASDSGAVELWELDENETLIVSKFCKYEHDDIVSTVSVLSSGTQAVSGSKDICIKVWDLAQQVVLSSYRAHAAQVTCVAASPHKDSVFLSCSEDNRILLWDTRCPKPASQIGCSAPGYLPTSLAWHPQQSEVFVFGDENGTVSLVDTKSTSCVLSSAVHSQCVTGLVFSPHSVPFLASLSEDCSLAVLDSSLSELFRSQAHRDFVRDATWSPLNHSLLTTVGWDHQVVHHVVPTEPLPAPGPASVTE
Experimental: Compounds of the invention may be tested for in vitro activity in the following assay: A histone H4 derived peptide is used as substrate (amino acid sequence: […]N H2). Full-length PRMT5 enzyme (NCBI Reference sequence NP_006100.2) was co-expressed with His6-MEP50 in insect cells and purified via Nickel immobilized metal affinity and gel filtration chromatography (“the enzyme”).
The 6 μL assay reactions are run in Greiner brand black 384-well low volume plates. All reactions contained assay buffer (phosphate buffered saline, 0.01% (v/v) Tween-20, 0.01% (w/v) albumin from chicken egg white, 1 mM dithiothreitol, 200 nM peptide substrate, 1 μM S-Adenosyl methionine, and 15 ng/reaction enzyme, with the enzyme being omitted from negative control reactions. Compounds were added in a volume of 100 nL from dilution series prepared in DMSO, positive and negative control reactions receiving the same volume DMSO without compound. The plates were sealed with adhesive seals and incubated for 4 hours at 37° C. Reaction progress was measured using the Transcreener™ EPIGEN methyltransferase assay (BellBrook Labs, Madison, Wis.) as recommended by the manufacturer. To each reaction 2 μL detection mix were added, containing coupling enzymes, fluorescence polarisation tracer, and AMP antibody. Plates were incubated for 90 min before being read on a PerkinElmer EnVision™ plate reader in fluorescence polarisation mode. IC50 values were obtained from the raw readings by calculating percent inhibition (%1) for each reaction relative to controls on the same plate (% I=(I−CN)/(CP−CN) where CN/CP are the averages of the negative/positive reactions, respectively), then fitting the % I data vs. compound concentration [I] to % I=(A+((B−A)/(1+((C/[I])^D)))) where A is the lower asymptote, B is the upper asymptote, C is the IC50 value, and D is the slope.

[2] = tested on: symmetrical dimethylation of arginine (Di-Methyl Histone H4R3) in cell line TE11; assay: PRMT5 Biomarker Assay (symmetrical dimethylation of arginine, Di-Methyl Histone H4R3 ELISA); assay type: cell-based; conditions: Homo sapiens, TE-11; TE11 cells, 72 h incubation, EpiQuik ELISA, corrected for total protein
Experimental: (§1) Compounds of the invention may be tested for potency to inhibit symmetrical dimethylation of arginine in the following assay:
The cell line TE11 was seeded at a density of 12,000 cells per well in 96 well tissue culture plates in DME medium and 10% foetal bovine serum, and allowed to adhere overnight under standard culture conditions (37° C., 5% CO2). Compound dilutions prepared in DMSO were added to the medium, with negative control wells reserved for treatment with DMSO only and positive controls receiving a potent PRMT5 inhibitor. The concentration of the inhibitor had been previously determined to give maximum inhibition of the methylation. After incubation for 72 h, cells were washed twice in ice-cold PBS, lysed in lysis buffer (20 mM Tris pH 7.4, 135 mM NaCl, 1.5 mM MgCl2, 1 mM EGTA, 10% glycerol and 1% Triton-X100), centrifuged at 15,000×g and the supernatants collected for subsequent analysis. The methylation level was determined using the EpiQuik™ Global Di-Methyl Histone H4R^3 Quantification ELISA Kit (Epigentek, Farmingdale, N.Y.) as per the manufacturer's recommendations; in parallel the total protein amount in the lysate was quantified using a Lowry protein assay. […]

[3] = target: T1, Full-length PRMT5 enzyme (NCBI Reference sequence NP_006100.2) co-expressed with His6-MEP50; assay: Revised PRMT5 Biochemical Assay; conditions: 1 μM peptide substrate, 1 μM S-Adenosyl methionine, 4 hours at 37 degree Celsius, Transcreener EPIGEN fluorescence polarisation
Summary of the method: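 Full-length PRMT5 co-expressed with His6-MEP50 in insect cells (15 ng/reaction) was run with 1 μM H4-derived peptide and 1 μM SAM in PBS, 0.01% Tween-20, 0.01% albumin and 1 mM DTT for 4 h at 37 °C. Product was read by Transcreener EPIGEN fluorescence polarisation, and IC50 came from a 4-parameter fit.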

[4] = tested on: symmetrical dimethylation of arginine (Di-Methyl Histone H4 Arginine 3) in cell line TE11; assay: Revised PRMT5 Biomarker Assay (Di-Methyl Histone H4 Arginine 3 immunofluorescence); assay type: cell-based; conditions: Homo sapiens, TE-11, TE11 cells, 72 hours
Experimental: as §1
The cell line TE11 was seeded at a density of 6,000 cells per well in 96 well optical quality tissue culture plates in DME medium and 10% foetal bovine serum, and allowed to adhere for 5 hours under standard culture conditions (37 degree Celsius, 5% CO2). […] After incubation for 72 hours, the cells were fixed with 3.7% formaldehyde in PBS for 30 minutes at room temperature, washed with phosphate buffer saline and blocked with Odyssey blocking buffer (LI-COR, Lincoln, Nebr.). Rabbit anti-Di-Methyl Histone H4 Arginine 3 specific antibody (Epigentek) in Odyssey blocking buffer was added and incubated for 14 hours at 4 degree Celsius. […] Alternatively, the plates were imaged on a PerkinElmer Phenix high content imaging platform. […] The resulting mean intensity per cell was directly converted to percent inhibition as outlined above (IC50, imager based).

[5] = PerkinElmer Envision fluorescence intensity, corrected for Hoechst 33342, read-out: IC50 - plate-reader based
[6] = PerkinElmer Phenix high content imaging, mean intensity per cell, read-out: IC50 - image based

Row | IC50 [1] | IC50 [2] | Structure (SMILES) | IC50 [3] | IC50 [4, 5] | IC50 [4, 6]
1 | 0.763 µM | 0.0072 µM | O=C(NCC(O)C1Cc2ccccc2CN1)c1ccc(C(=O)N2CCOCC2)cc1 (centres unmarked) [Example 2, N-(2-hydroxy-2-(1,2,3,4-tetrahydroisoquinolin-3-yl)ethyl)-4-(morpholine-4-carbonyl)benzamide] | – | – | –
2 | 4.69 µM | 0.956 µM | O=C(NCC(O)CC1Cc2ccccc2CN1)c1ccc(C(=O)N2CCOCC2)cc1 (centres unmarked) [Example 1, N-(2-Hydroxy-3-(1,2,3,4-tetrahydroisoquinolin-3-yl)propyl)-4-(morpholine-4-carbonyl)benzamide] | – | – | –
3 | 22 µM | – | O=C(NC[C@H](O)[C@H]1Cc2ccccc2CN1)c1ccc(C(=O)N2CCOCC2)cc1 [Example 53, N—((S)-2-hydroxy-2-((R)-1,2,3,4-tetrahydroisoquinolin-3-yl)ethyl)-4-(morpholine-4-carbonyl)benzamide hydrochloride] | 21.2 µM | – | –

The remaining lines, values behind:

Row | Structure (SMILES) | IC50 [1] | IC50 [2] | IC50 [3] | IC50 [4, 5] | IC50 [4, 6]
4 | O=C(NC[C@@H](O)[C@@H]1Cc2ccccc2CN1)c1ccc(C(=O)N2C3CCC2COC3)cc1Cl [Example 83, 4-(3-Oxa-8-azabicyclo[3.2.1]octane-8-carbonyl)-2-chloro-N-((R)-2-hydroxy-2-((S)-1,2,3,4-tetrahydroisoquinolin-3-yl)ethyl)benzamide] | – | – | 0.065 µM | 0.004 µM | –
5 | CCOc1cc(C(=O)N2C3CCC2COC3)ccc1C(=O)NC[C@@H](O)[C@@H]1Cc2ccccc2CN1 [Example 50, 4-(3-Oxa-8-azabicyclo[3.2.1]octane-8-carbonyl)-2-ethoxy-N—((R)-2-hydroxy-2-((S)-1,2,3,4-tetrahydroisoquinolin-3-yl)ethyl)benzamide hydrochloride] | – | – | 0.019 µM | 0.0003 µM | 0.0003 µM
6 | CC(=O)N1CCC(Oc2cc(C(=O)NC[C@@H](O)[C@@H]3Cc4ccccc4CN3)ccn2)CC1 [Example 102, 2-((1-Acetylpiperidin-4-yl)oxy)-N—((R)-2-hydroxy-2-((S)-1,2,3,4-tetrahydroisoquinolin-3-yl)ethyl)isonicotinamide] | – | – | 0.068 µM | 0.005 µM | –
7 | O=C(NC[C@@H](O)[C@@H]1Cc2ccccc2CN1)c1ccc(C(=O)N2C3CCCC2COC3)cc1 [Example 103, 4-(3-Oxa-9-azabicyclo[3.3.1]nonane-9-carbonyl)-N—((R)-2-hydroxy-2-((S)-1,2,3,4-tetrahydroisoquinolin-3-yl)ethyl)benzamide] | – | – | 0.065 µM | 0.004 µM | –
8 | O=C(NC[C@@H](O)[C@@H]1Cc2ccccc2CN1)c1ccc(C(=O)N2C3CCC2COC3)cc1C(F)F [Example 106, 4-(3-Oxa-8-azabicyclo[3.2.1]octane-8-carbonyl)-2-(difluoromethyl)-N—((R)-2-hydroxy-2-((S)-1,2,3,4-tetrahydroisoquinolin-3-yl)ethyl)benzamide] | – | – | 0.212 µM | – | 0.005 µM
